Measured values: the supplement of paper PMC8253809

Legend:
[1] = tested on: DIPGX29 (H3.3 K27M diffuse intrinsic pontine glioma line); experiment: EC50 (inflection of fitted growth-inhibition curve) (log10 M)
Procedure, shortened: (§1)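 Treatment used a pin tool and a 10-point threefold dilution series, mean top concentration 35 μM, run in triplicate on patient-derived pHGG/DIPG cell lines and astrocyte controls in 1% Geltrex-coated 384-well plates. Plates were kept at 37 °C, 5% CO2 for 7 days (iAstro: 3 days). Log2-transformed CellTiter-Glo luminescence was scaled per plate to % activity between negative (solvent) and positive control wells and pooled before fitting. EC50 and maximal response (yFin) came from the three- or four-parameter log-logistic fit chosen by lowest AICc.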

[2] = tested on: DIPGX37 (H3.3 K27M diffuse intrinsic pontine glioma line); experiment: as above
Procedure, shortened: as §1

[3] = tested on: DIPGX7 (H3.3 K27M diffuse intrinsic pontine glioma line); experiment: as above
Procedure, shortened: as §1

[4] = tested on: HGGX39 (paediatric high-grade glioma line); experiment: as above
Procedure, shortened: as §1

[5] = tested on: HGGX42 (H3.3 G34R paediatric high-grade glioma line); experiment: as above
Procedure, shortened: as §1

[6] = tested on: SUDIPGIV (diffuse intrinsic pontine glioma line); experiment: as above
Procedure, shortened: as §1

[7] = tested on: SUDIPGVI (diffuse intrinsic pontine glioma line); experiment: as above
Procedure, shortened: as §1

[8] = tested on: SUDIPGXIII (diffuse intrinsic pontine glioma line); experiment: as above
Procedure, shortened: as §1

[9] = tested on: SUDIPGXVII (diffuse intrinsic pontine glioma line); experiment: as above
Procedure, shortened: as §1

[10] = tested on: SUDIPGXXI (diffuse intrinsic pontine glioma line); experiment: as above
Procedure, shortened: as §1

[11] = tested on: iAstro (astrocyte control); experiment: as above
Procedure, shortened: as §1

[12] = tested on: DIPGX29; experiment: maximal growth inhibition (yFin) relative to DMSO / staurosporine; higher = more efficacious
Procedure, shortened: as §1

[13] = tested on: DIPGX37; experiment: as above
Procedure, shortened: as §1

[14] = tested on: DIPGX7; experiment: as above
Procedure, shortened: as §1

[15] = tested on: HGGX39; experiment: as above
Procedure, shortened: as §1

[16] = tested on: HGGX42; experiment: as above
Procedure, shortened: as §1

[17] = tested on: SUDIPGIV; experiment: as above
Procedure, shortened: as §1

[18] = tested on: SUDIPGVI; experiment: as above
Procedure, shortened: as §1

[19] = tested on: SUDIPGXIII; experiment: as above
Procedure, shortened: as §1

[20] = tested on: SUDIPGXVII; experiment: as above
Procedure, shortened: as §1

[21] = tested on: SUDIPGXXI; experiment: as above
Procedure, shortened: as §1

[22] = tested on: iAstro; experiment: as above
Procedure, shortened: as §1

[23] = tested on: DIPGX29; experiment: area under dose-response curve of % growth inhibition (log2 RLU vs DMSO / staurosporine), 1e-11 to 1e-4 M (% x log10 M); higher = more growth inhibition
Procedure, shortened: (§2)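 Patient-derived pHGG/DIPG cell lines and astrocytes were plated in 384-well plates coated with 1% Geltrex and treated in triplicate with a 10-point threefold dilution series whose mean top concentration was 35 μM, for 7 days (3 days for iAstro) at 37 °C and 5% CO2. CellTiter-Glo luminescence was log2-transformed and scaled on each plate to % activity between solvent and positive controls. Area under the curve came from the trapezoid rule applied to a fitted log-logistic curve, or to a smoothing spline where the sigmoid fit failed.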

[24] = tested on: DIPGX37; experiment: as above
Procedure, shortened: as §2

[25] = tested on: DIPGX7; experiment: as above
Procedure, shortened: as §2

[26] = tested on: DIPGX9 (diffuse intrinsic pontine glioma line); experiment: as above
Procedure, shortened: as §2

[27] = tested on: HABS (astrocyte control); experiment: as above
Procedure, shortened: as §2

[28] = tested on: HGGX2 (paediatric high-grade glioma line); experiment: as above
Procedure, shortened: as §2

[29] = tested on: HGGX39; experiment: as above
Procedure, shortened: as §2

[30] = tested on: HGGX42; experiment: as above
Procedure, shortened: as §2

[31] = tested on: HGGX6 (H3.3 G34R paediatric high-grade glioma line); experiment: as above
Procedure, shortened: as §2

[32] = tested on: SUDIPGIV; experiment: as above
Procedure, shortened: as §2

[33] = tested on: SUDIPGVI; experiment: as above
Procedure, shortened: as §2

[34] = tested on: SUDIPGXIII; experiment: as above
Procedure, shortened: as §2

[35] = tested on: SUDIPGXIX (diffuse intrinsic pontine glioma line); experiment: as above
Procedure, shortened: as §2

[36] = tested on: SUDIPGXVII; experiment: as above
Procedure, shortened: as §2

[37] = tested on: SUDIPGXXI; experiment: as above
Procedure, shortened: as §2

[38] = tested on: iAstro; experiment: as above
Procedure, shortened: as §2

[39] = tested on: DIPGX9; experiment: EC50 (inflection of fitted growth-inhibition curve) (log10 M)
Procedure, shortened: as §1

[40] = tested on: HABS; experiment: as above
Procedure, shortened: as §1

[41] = tested on: HGGX6; experiment: as above
Procedure, shortened: as §1

[42] = tested on: SUDIPGXIX; experiment: as above
Procedure, shortened: as §1

[43] = tested on: DIPGX9; experiment: maximal growth inhibition (yFin) relative to DMSO / staurosporine; higher = more efficacious
Procedure, shortened: as §1

[44] = tested on: HABS; experiment: as above
Procedure, shortened: as §1

[45] = tested on: HGGX6; experiment: as above
Procedure, shortened: as §1

[46] = tested on: SUDIPGXIX; experiment: as above
Procedure, shortened: as §1

| Compound | EC50 (log10 M) [1] | EC50 (log10 M) [4] | EC50 (log10 M) [5] | EC50 (log10 M) [6] | EC50 (log10 M) [7] | EC50 (log10 M) [8] | EC50 (log10 M) [9] | maximal growth inhibition [12] [%] | maximal growth inhibition [15] [%] | maximal growth inhibition [16] [%] | maximal growth inhibition [17] [%] | maximal growth inhibition [18] [%] | maximal growth inhibition [19] [%] | maximal growth inhibition [20] [%] | area under dose-response curve [23] | area under dose-response curve [24] | area under dose-response curve [25] | area under dose-response curve [26] | area under dose-response curve [27] | area under dose-response curve [28] | other results |
| --- | --- | --- | --- | --- | --- | --- | --- | --- | --- | --- | --- | --- | --- | --- | --- | --- | --- | --- | --- | --- | --- |
| Fc1ccc(-c2c3cccc(C(F)(F)F)c3nn2Cc2ccc(F)cc2Cl)cc1 | -4.98 | -5.05 | -5.03 | -5.12 | -4.94 | -5.05 | -5.16 | 38.7 | 38.1 | 38.9 | 60.3 | 42.8 | 51.1 | 30.9 | 38.1 | 53 | 53.6 | 31.5 | 9.3 | 13.1 | EC50 (log10 M) [2]: -5.07; EC50 (log10 M) [3]: -5.33; EC50 (log10 M) [10]: -5.13; EC50 (log10 M) [11]: -5.13; maximal growth inhibition [13]: 49.6%; maximal growth inhibition [14]: 40.8%; maximal growth inhibition [21]: 112%; maximal growth inhibition [22]: 33.9%; area under dose-response curve [29]: 39.9; area under dose-response curve [30]: 40.2; area under dose-response curve [31]: 6.34; area under dose-response curve [32]: 67.1; area under dose-response curve [33]: 39.9; area under dose-response curve [34]: 52.8; area under dose-response curve [35]: 2.47; area under dose-response curve [36]: 40.7; area under dose-response curve [37]: 165; area under dose-response curve [38]: 38.3 |
| Nc1ccc2ncnc(NCCc3ccc(Oc4ccccc4)cc3)c2c1 [EVP4593] | -7.98 | -8.62 | -7.84 | -7.95 | -8.43 | -8.11 | -8.18 | 45.1 | 46.7 | 44.9 | 74.9 | 54.6 | 84.8 | 35.9 | 179 | 275 | 447 | 183 | 141 | 71.8 | EC50 (log10 M) [39]: -7.97; EC50 (log10 M) [40]: -7.75; EC50 (log10 M) [41]: -8.04; EC50 (log10 M) [42]: -7.71; maximal growth inhibition [43]: 46.2%; maximal growth inhibition [44]: 37.7%; maximal growth inhibition [45]: 38.5%; maximal growth inhibition [46]: 47.8%; area under dose-response curve [29]: 216; area under dose-response curve [30]: 173; area under dose-response curve [31]: 156; area under dose-response curve [32]: 296; area under dose-response curve [33]: 242; area under dose-response curve [34]: 348; area under dose-response curve [35]: 178; area under dose-response curve [36]: 171; area under dose-response curve [37]: 224; area under dose-response curve [38]: 113 |
